Assay results published in patent publication US4990518A, “Pharmacologically active heteroaryl substituted imidazo (4,5-c) pyridines” (G. D. Searle & Co., priority 1989, dated 1991).

Legend:
[1] = target: PAF receptor (Human Platelet Membrane Receptors) (Homo sapiens, UniProt P25105)
Method: Inhibition of ^3 H-PAF Binding to Human Platelet Membrane Receptors
Receptor Preparation: Ten units of in-dated human packed platelets, each containing 45-65 ml platelet rich-plasma, were purchased from a commercial blood bank. Disposable plasticware was used throughout for receptor preparation. The units were pooled and a 1 ml aliquot was removed for determination of platelet concentration, using a Coulter Counter. […] Protein content was determined by a fluorescamine protein assay.
Assay Methods: Receptor Characterization--Each receptor preparation was evaluated to determine the number of receptor populations, the number of PAF receptor equivalents/mg protein and the dissociation constant (KD) for PAF binding. This required 2-3 experiments in which the protein concentration was held constant and the ^3 H-PAF ligand concentration was varied from approximately 0.10-2.5 nM and the data was analyzed by Scatchard methodology. […]
Assay Methods: Routine Assay of Compounds--The compounds were weighed precisely and solubilized in quantities of DMSO such that a 5 μl aliquot in the incubate would deliver the desired compound concentration. Compounds tested for the first time in this assay were evaluated at a concentration of 50 μM in the incubation medium. […]

[2] = system: PAF-induced aggregation of washed rabbit platelets; experiment: PAF-induced platelet aggregation; assay type: cell-based; conditions: Oryctolagus cuniculus, antagonist 60 sec before PAF (0.2 nM to 0.2 μM), read 60 sec after PAF
Method: (§1) PAF-induced platelet aggregation and secretion: Washed, [^3 H]serotonin labeled rabbit platelets were prepared as previously described in COX, C. P , J. LINDEN and S. I. SAID: VIP elevates platelet cyclic AMP (cAMP) levels and inhibits in vitro platelet activation induced by platelet-activating factor (PAF). Peptides 5:25-28, 1984, and maintained in an atmosphere of 5% CO2 at 37° C. until used in the bioassay. Aliquots of platelets (2.5×10^8 /ml) were incubated with either an antagonist of PAF or the appropriate vehicle for 60 sec prior to the addition of PAF (0.2 nM to 0.2 μM). Aggregation was continuously monitored on a strip-chart recorder and recorded as the height of the tracing at 60 sec after the addition of PAF. Secretion of [^3 H] serotonin was measured in a sample of the platelet suspension removed at 60 sec after the addition of PAF. The percent inhibition of aggregation and secretion was calculated by comparing antagonist-treated platelets with the appropriate vehicle-treated control platelets. Each combination of antagonist and PAF was repeated using different platelet preparations. IC50 values were determined by inspection of the dose-response curves.

[3] = system: PAF-induced secretion of [^3 H]serotonin-labeled rabbit platelets; experiment: PAF-induced platelet secretion ([^3 H]serotonin); assay type: cell-based; conditions: Oryctolagus cuniculus, washed rabbit platelets, antagonist 60 sec before PAF (0.2 nM to 0.2 μM), read 60 sec after PAF
Method: as §1

Sequence of PAF receptor (Human Platelet Membrane Receptors) (P25105 whole entry): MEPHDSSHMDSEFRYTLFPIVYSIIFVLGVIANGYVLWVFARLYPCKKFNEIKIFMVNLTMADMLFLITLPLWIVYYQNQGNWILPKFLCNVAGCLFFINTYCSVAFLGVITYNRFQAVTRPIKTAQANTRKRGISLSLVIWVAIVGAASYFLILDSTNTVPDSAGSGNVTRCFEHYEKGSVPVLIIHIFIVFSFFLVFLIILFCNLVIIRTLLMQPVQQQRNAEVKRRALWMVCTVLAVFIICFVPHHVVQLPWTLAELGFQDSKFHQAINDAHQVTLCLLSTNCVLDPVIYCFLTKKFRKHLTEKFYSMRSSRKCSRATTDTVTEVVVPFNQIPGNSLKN

| Structure (SMILES) | IC50 [1] [µM] | IC50 [2] [µM] | IC50 [3] [µM] | inhibition at 50 µM ([1]; read-out: inhibited ^3 H-PAF binding (triazolam compound inhibition control)) [%] |
| --- | --- | --- | --- | --- |
| O=C(c1ccc(Cn2ccc3ncnc-3c2)nc1)N(C1CCCC1)C1CCCC1 [Example 1, N,N-dicyclopentyl-6-(5H-imidazo[4,5-c]pyridin-5-yl-methyl)-3-pyridinecarboxamide] | 0.88 | – | – | – |
| CN(C(=O)c1ccc(Cn2ccc3ncnc-3c2)o1)C1CCCCC1 [Example 2, N-cyclohexyl-5-[(5H-imidazo[4,5-c]pyridin-5-yl)methyl]N-methyl-2-furancarboxamide] | – | ~100 | 50 | – |
| O=C(c1ccc(Cn2ccc3ncnc-3c2)o1)N(C1CCCCC1)C1CCCC1 [Example 3] | – | 10 to 100 | 2.8 | – |
| Cc1nnc2n1-c1ccc(Cl)cc1C(c1ccccc1Cl)=NC2 [Triazolam, triazolam, reference compound] | – | – | – | ~50 |
